Measured values published in US20130267588A1, “HYDROXYTYROSOL ETHERS” (FUNDACIO IMIM, priority 2010, published 2013).
Read-outs that look alike come from different tables or passages of the source.

Assays:
CB1 receptor = target: T1, CB1 receptor (Rattus norvegicus, UniProt P20272); assay: Ligand-receptor assay for the CB1 receptor, displacement of [3H] SR141716; format: binding; details: rat cerebellum membranes
T1 construct: displace [^3H]; from tissue; host or cells: rat cerebellum membranes
Protocol: The ligand-receptor assay for the CB1 receptor evaluates the capacity of the synthesized compounds to displace [^3H]
The ligand-receptor assay was performed using the CB1 labeled antagonist, [^3H] […] 450 μL of pH-regulating solution A (50 mM Tris pH=7.4 with 0.5% bovine serum albumin (BSA)), 100-200 μg rat cerebellum membranes, the diluted product and the labeled CB1 antagonist, [^3H] […] After incubating for […] at 37° C., the reaction was stopped with 1 mL of pH-regulating solution A. The mixture was centrifuged at 5000 rpm for 5 minutes. The supernatant was discarded and the pellet washed with another 1 mL of pH-regulating solution A, centrifuged and the supernatant one again was discarded. Scintillation liquid was added and the samples were read in a beta particle counter (Liquid Scintillation Analyzer, Tri-Carb 2100 TR, PACKARD, Packard Bioscience Company).

male Wistar rats = assay: Acute intake experiment in animals fasting for 24 hours; format: in vivo, rat; details: rats fasted 24 hours, food given 30 min after injection, n=8
Protocol: All the in vivo experiments were performed using male Wistar rats weighing 200-500 g. The animals were housed in individual cages in a room with controlled temperature (23° C.) and humidity (50%) with a 12/12 light and dark cycle. The animals had access to water and food ad libitum except in specific experimental methods. The animals were manipulated once a day for this two days before the experimental sessions. All the products were dissolved in a mixture of DMSO (5%), Tween 60 (5%)/saline (90%). The in vivo experiments included the analysis of intake and effects on general behavior. None of the assayed compounds altered the general behavior of the animal but some reduced the animal's appetite (FIGS. 1 to 8).
The acute effect on the intake of all the products was tested in animals fasting for 24 hours.
Thirty minutes after injection, previously weighed food was put in the cage. The food was weighed 30, 60, 120 and 240 minutes after starting the test. All the intake experiments were performed with groups of 8 animals (n=8) (FIGS. 1 to 8). […] The compounds (Z)-1-(2-phenylethoxy)octadec-9-ene (Example 3, FIG. 1) and (Z)-1-(2-(3,4-methylenedioxyphenyl)ethoxy)octadec-9-ene (Example 2, FIG. 3) reduced intake by about 25%. All the compounds had long-term effects, the reduction of intake being significant 4 hours after administration.

LDL = assay: Conjugated dienes experiment, copper-induced LDL oxidation; format: biochemical, human; details: compounds at 0.5, 1 and 3 μM
Protocol: Blood from healthy, fasting volunteers is collected in tubes containing 1 g/L of EDTA. The plasma is prepared by centrifugation at 1,000 g and 4° C. for 15 minutes. LDL is isolated by sequential ultracentrifugation. Native LDL is dialyzed by size exclusion chromatography in Sephadex G25 columns (Pharmacia, Uppsala, Sweden), with 2.7 ml of 0.01 mol pH 7.4 phosphate buffer (PB) at 4° C. The apolipoprotein B100 content is determined by immunoturbidimetry (ABX Diagnostics—Montpellier, France).
Dialyzed LDL (final concentration of 0.06 g of Apo-B/L) in PB at a final volume of 150 μL was incubated in a […] ELISA plate (flat bottom, transparent to UV, Corning®) with 10 μL of methanol in the presence or absence (control) of the compounds object of the study. 10 μL of a 100 μM copper sulfate solution (final concentration of […]) are then added. To minimize evaporation during prolonged incubation periods, 10 μL of mineral oil (Sigma-Aldrich) are added on the surface of the reaction mixture. […] The absorbance at 234 nm is continuously monitored every 15 minutes for 24 hours in an Infinite M200 plate reader (TECAN IBERICA, Männedorf, Switzerland). The controls and the samples (containing concentrations of the compounds to be assayed of 0.5, 1 and 3 μM) were evaluated in the same assay in duplicate and each experiment was repeated three times. […]

T1 sequence (P20272 whole entry): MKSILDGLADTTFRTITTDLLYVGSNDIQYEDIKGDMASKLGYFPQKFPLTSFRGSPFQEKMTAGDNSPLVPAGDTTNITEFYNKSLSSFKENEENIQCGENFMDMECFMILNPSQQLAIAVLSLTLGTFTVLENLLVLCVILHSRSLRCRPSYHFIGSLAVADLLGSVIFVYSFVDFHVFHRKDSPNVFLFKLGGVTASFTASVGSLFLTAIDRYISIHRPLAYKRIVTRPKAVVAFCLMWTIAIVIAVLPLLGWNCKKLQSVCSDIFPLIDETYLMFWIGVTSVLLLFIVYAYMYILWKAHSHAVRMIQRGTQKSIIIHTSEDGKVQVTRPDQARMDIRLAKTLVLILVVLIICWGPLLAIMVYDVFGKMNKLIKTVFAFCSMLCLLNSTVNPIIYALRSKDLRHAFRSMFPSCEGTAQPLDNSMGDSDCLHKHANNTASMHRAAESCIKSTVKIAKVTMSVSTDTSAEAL

SMILES | CB1 Ki (M) (CB1 receptor) | CB1 pKi (CB1 receptor) | reduction of intake with respect to the control group (male Wistar rats) | Ki (CB1 receptor; read-out: CB1 Ki) [µM] | LDL antioxidant activity (lag-time until formation of conjugated dienes) (LDL) | Ki (CB1 receptor; read-out: CB1 pKi (converted)) [µM]
CCCCCCCC/C=C\CCCCCCCCOCCc1ccc2c(c1)OCO2 [Example 2, (Z)-1-(2-(3,4-methylenedioxyphenyl)ethoxy)octadec-9-ene] | No affinity | No affinity | about 25% | – | – | –
CCCCCCCC/C=C\CCCCCCCCOCCc1ccccc1 [Example 3, (Z)-1-(2-phenylethoxy)octadec-9-ene] | No affinity | No affinity | about 25% | – | – | –
CCCCC/C=C\C/C=C\CCCCCCCCOCCc1ccc2c(c1)OCO2 [Example 5, (9Z,12Z)-1-(2-(3,4-methylenedioxyphenyl)ethoxy)-octadeca-9,12-diene] | – | – | – | 22.5 | – | –
CCCCC/C=C\C/C=C\CCCCCCCCOCCc1ccc(O)c(O)c1 [Example 10, (9Z,12Z)-1-(2-(3,4-dihydroxyphenyl)ethoxy)-octadeca-9,12-diene] | – | – | 50% | 7.49 | activity similar to that of hydroxytyrosol at the three assayed concentrations | 7.59
